Numbered stars: 1 amine (or outer) side, 2 acyl side, 3 side chain; on linkers, the order of the positions; unused ones are H or OH. Square brackets hold non-standard residues; d marks the D form. Side chains are listed from the residue outwards. Peptide text beside a SMILES is read from it. * marks the point of attachment. C18 diacid = O=C(O)CCCCCCCCCCCCCCCCC(=O)*; γGlu = O=C(O)[C@H](CCC(=O)[*:2])N[*:1]; AEEA = NCCOCCOCC(=O)O; Aib = CC(C)(N)C(=O)O
Experiment: Thioflavin T (ThT) fibrillation assay for physical stability
Type: physicochemical
Details: 250 μM in 10 mM HEPES buffer, pH 7.5, 37° C., shaking 960 rpm
Excerpt: The purpose of this assay was to assess the physical stability of the glucagon derivatives of the invention in aqueous solutions.
Low physical stability of a peptide may lead to amyloid fibril formation, which is observed as well-ordered, thread-like macromolecular structures in the sample, which eventually may lead to gel formation. This has traditionally been measured by visual inspection of the sample. However, that kind of measurement is very subjective and depending on the observer. Therefore, the application of a small molecule indicator probe is much more advantageous. Thioflavin T (ThT) is such a probe and has a distinct fluorescence signature when binding to fibrils [Naiki et al; Anal. Biochem. 1989 177 244-249; LeVine; Methods. Enzymol. 1999 309 274-284].
The time course for fibril formation can be described by a sigmoidal curve with the following expression [Nielsen et al; Biochemistry 2001 40 6036-6046]:
Here, as depicted in FIG. 1, F is the ThT fluorescence at the time t. The constant t0 is the time needed to reach 50% of maximum fluorescence. The two important parameters describing fibril formation are the lag-time calculated by t0−2τ and the apparent rate constant kapp 1/τ.
Samples were prepared freshly before each assay. Each sample composition is described in the legends. The pH of the sample was adjusted to the desired value using appropriate amounts of concentrated NaOH and HCl. Thioflavin T was added to the samples from a stock solution in H2O to a final concentration of 1 μM.
Sample aliquots of 200 μl (250 μM of the glucagon derivative/analogue in 10 mM HEPES buffer, pH 7.5) were placed in a 96 well microtiter plate (Packard OptiPlate™-96, white polystyrene). Usually, four or eight replica of each sample (corresponding to one test condition) were placed in one column of wells. The plate was sealed with Scotch Pad (Qiagen).
Incubation at given temperature, shaking and measurement of the ThT fluorescence emission were done in a Fluoroskan Ascent FL fluorescence plate reader (Thermo Labsystems). The temperature was set to 37° C. and the plate was incubated with orbital shaking adjusted to 960 rpm with an amplitude of 1 mm. Fluorescence measurement was done using excitation through a 444 nm filter and measurement of emission through a 485 nm filter.
Each run was initiated by incubating the plate at the assay temperature for 10 min. The plate was measured every 20 minutes for a desired period of time. Between each measurement, the plate was shaken and heated as described.
After completion of the ThT assay the four or eight replica of each sample was pooled and centrifuged at 20000 rpm for 30 minutes at 18° C. The supernatant was filtered through a 0.22 μm filter and an aliquot was transferred to a HPLC vial.
The concentration of peptide in the initial sample and in the filtered supernatant was determined by reverse phase HPLC using an appropriate standard as reference. The percentage fraction the concentration of the filtered sample constituted of the initial sample concentration was reported as the recovery.
The measurement points were saved in Microsoft Excel format for further processing and curve drawing and fitting was performed using GraphPad Prism. The background emission from ThT in the absence of fibrils was negligible. The data points were typically a mean of four or eight samples.
The data set may be fitted to Eq. (1).
Molecule `CC(C)C[C@H](NC(=O)[C@H](Cc1ccc(O)cc1)NC(=O)[C@H](CCCCN)NC(=O)[C@H](CO)NC(=O)[C@H](CC(C)C)NC(=O)[C@H](CC(=O)O)NC(=O)[C@H](CO)NC(=O)[C@@H](NC(=O)[C@H](Cc1ccccc1)NC(=O)[C@@H](NC(=O)CNC(=O)[C@H](CCC(N)=O)NC(=O)C(C)(C)NC(=O)[C@@H](N)Cc1c[nH]cn1)[C@@H](C)O)[C@@H](C)O)C(=O)N[C@@H](CC(=O)O)C(=O)N[C@@H](CCCCNC(=O)CC[C@H](NC(=O)CC[C@H](NC(=O)COCCOCCNC(=O)COCCOCCNC(=O)CC[C@H](NC(=O)CCCCCCCCCCCCCCCCC(=O)O)C(=O)O)C(=O)O)C(=O)O)C(=O)N[C@@H](CCCCN)C(=O)N[C@@H](CCCNC(=N)N)C(=O)N[C@@H](C)C(=O)N[C@@H](CCC(N)=O)C(=O)N[C@@H](CCC(=O)O)C(=O)N[C@@H](Cc1ccccc1)C(=O)N[C@H](C(=O)N[C@@H](CCC(N)=O)C(=O)N[C@@H](Cc1c[nH]c2ccccc12)C(=O)N[C@@H](CC(C)C)C(=O)N[C@@H](CC(C)C)C(=O)N[C@@H](CC(N)=O)C(=O)N[C@H](C(N)=O)[C@@H](C)O)C(C)C` [Example 7, N^ε16-[(4S)-4-carboxy-4-[[(4S)-4-carboxy-4-[[2-[2-[2-[[2-[2-[2-[[(4S)-4-carboxy-4-(17-carboxyheptadecanoylamino)butanoyl]amino]ethoxy]ethoxy]acetyl]amino]ethoxy]ethoxy]acetyl]amino]butanoyl]amino]butanoyl]-[Aib2,Leu10,Lys16,Lys17,Glu21,Leu27]-Glucagon amide] (H-H[Aib]QGTFTSDLSKYLDK([γGlu-γGlu-AEEA-AEEA-γGlu-C18 diacid])KRAQEFVQWLLNT-NH2; N-terminus assumed) has a THT assay Lag time (Ex. 76) of 45 h. For `CC(C)C[C@H](NC(=O)[C@H](Cc1c[nH]c2ccccc12)NC(=O)[C@H](C)NC(=O)[C@@H](NC(=O)[C@H](Cc1ccccc1)NC(=O)[C@H](CCC(=O)O)NC(=O)[C@H](CCCNC(=N)N)NC(=O)[C@H](C)NC(=O)[C@H](C)NC(=O)[C@H](CCCNC(=N)N)NC(=O)[C@H](CCCCNC(=O)CC[C@H](NC(=O)CC[C@H](NC(=O)COCCOCCNC(=O)COCCOCCNC(=O)CC[C@H](NC(=O)CCCCCCCCCCCCCCCCC(=O)O)C(=O)O)C(=O)O)C(=O)O)NC(=O)[C@H](CC(=O)O)NC(=O)[C@H](CC(C)C)NC(=O)[C@H](Cc1ccc(O)cc1)NC(=O)[C@H](CCCCN)NC(=O)[C@H](CO)NC(=O)[C@H](CC(C)C)NC(=O)[C@H](CC(=O)O)NC(=O)[C@H](CO)NC(=O)[C@@H](NC(=O)[C@H](Cc1ccccc1)NC(=O)[C@@H](NC(=O)CNC(=O)[C@H](CCC(N)=O)NC(=O)C(C)(C)NC(=O)[C@@H](N)Cc1c[nH]cn1)[C@@H](C)O)[C@@H](C)O)C(C)C)C(=O)N[C@@H](CC(C)C)C(=O)N[C@@H](CC(N)=O)C(=O)N[C@H](C(N)=O)[C@@H](C)O` [Example 18, N^ε29-[(4S)-4-carboxy-4-[[(4S)-4-carboxy-4-[[2-[2-[2-[[2-[2-[2-[[(4S)-4-carboxy-4-(17-carboxyheptadecanoylamino)butanoyl]amino]ethoxy]ethoxy]acetyl]amino]ethoxy]ethoxy]acetyl]amino]butanoyl]amino]butanoyl]-[Aib2,Leu10,Lys16,Ala18,Arg20,Glu21,Ala-24,Leu27]-Glucagon amide] (H-H[Aib]QGTFTSDLSKYLDK([γGlu-γGlu-AEEA-AEEA-γGlu-C18 diacid])RAAREFVAWLLNT-NH2; N-terminus assumed), the THT assay Lag time (Ex. 76) was 45 h. Molecule `CC(C)C[C@H](NC(=O)[C@H](Cc1c[nH]c2ccccc12)NC(=O)[C@H](C)NC(=O)[C@@H](NC(=O)[C@H](Cc1ccccc1)NC(=O)[C@H](CCC(=O)O)NC(=O)[C@H](CCCNC(=N)N)NC(=O)[C@H](C)NC(=O)[C@H](CCCNC(=N)N)NC(=O)[C@H](CCCNC(=N)N)NC(=O)[C@H](CCCCNC(=O)CC[C@H](NC(=O)COCCOCCNC(=O)COCCOCCNC(=O)CC[C@H](NC(=O)CC[C@H](NC(=O)CCCCCCCCCCCCCCCCC(=O)O)C(=O)O)C(=O)O)C(=O)O)NC(=O)[C@H](CCC(=O)O)NC(=O)[C@H](CC(C)C)NC(=O)[C@H](Cc1ccc(O)cc1)NC(=O)[C@H](CCCCN)NC(=O)[C@H](CO)NC(=O)[C@H](CC(C)C)NC(=O)[C@H](CC(=O)O)NC(=O)[C@H](CO)NC(=O)[C@@H](NC(=O)[C@H](Cc1ccccc1)NC(=O)[C@@H](NC(=O)CNC(=O)[C@H](Cc1c[nH]cn1)NC(=O)C(C)(C)NC(=O)[C@@H](N)Cc1c[nH]cn1)[C@@H](C)O)[C@@H](C)O)C(C)C)C(=O)N[C@@H](CC(C)C)C(=O)N[C@@H](CO)C(=O)N[C@H](C(N)=O)[C@@H](C)O` [Example 32, N^ε16-[(4S)-4-carboxy-4-[[2-[2-[2-[[2-[2-[2-[[(4S)-4-carboxy-4-[[(4S)-4-carboxy-4-(17-carboxyheptadecanoylamino)butanoyl]amino]butanoyl]amino]ethoxy]ethoxy]acetyl]amino]ethoxy]ethoxy]acetyl]amino]butanoyl]-[Aib2,His3,Leu10,Glu15,Lys16,Arg20,Glu21,Ala24, Leu27,Ser28]-Glucagon amide] (H-H[Aib]HGTFTSDLSKYLEK([γGlu-AEEA-AEEA-γGlu-γGlu-C18 diacid])RRAREFVAWLLST-NH2; N-terminus assumed) has a THT assay Lag time (Ex. 76) of 45 h.

Source: patent US9474790B2, “Stable, protracted GLP-1/glucagon receptor co-agonists for medical use” (Novo Nordisk A/S, priority 2013, dated 2016)
